Experimental data reported in paper PMC5218480 (PLoS ONE, 2017).

System: MV-4-11 cells
Assay: Gene expression microarray analysis (Affymetrix PrimeView) and GSEA
Type: cell-based, human
Design: RFU PODN (11730768_x_at) / Fold change /veh PODN (11730768_x_at) / RFU LINC00158 (11744669_a_at) / Fold change /veh LINC00158 (11744669_a_at) / RFU DUSP10 (11751237_a_at) / Fold change /veh DUSP10 (11751237_a_at) / RFU ID3 (11757404_x_at) / Fold change /veh ID3 (11757404_x_at) / RFU PLEKHG5 (11737974_s_at) / Fold change /veh PLEKHG5 (11737974_s_at) / RFU LRRC4B (11730491_at) / Fold change /veh LRRC4B (11730491_at) / RFU GIMAP4 (11747438_a_at) / Fold change /veh GIMAP4 (11747438_a_at) / RFU KRT8 (11758183_x_at) / Fold change /veh KRT8 (11758183_x_at) / RFU CNN1 (11734310_a_at) / Fold change /veh CNN1 (11734310_a_at) / RFU VPS37D (11726825_at) / Fold change /veh VPS37D (11726825_at) / RFU C10orf10 (11716522_x_at) / Fold change /veh C10orf10 (11716522_x_at) / RFU KIR2DL2 /// KIR2DL4 /// KIR2DL5A /// KIR2DL5B /// KIR2DS1 /// KIR2DS2 /// KIR2DS3 /// KIR2DS4 /// KIR3DL3 /// KIR3DL3 /// KIR3DS1 (11738374_at) / Fold change /veh KIR2DL2 /// KIR2DL4 /// KIR2DL5A /// KIR2DL5B /// KIR2DS1 /// KIR2DS2 /// KIR2DS3 /// KIR2DS4 /// KIR3DL3 /// KIR3DL3 /// KIR3DS1 (11738374_at) / RFU C1QL1 (11718748_at) / Fold change /veh C1QL1 (11718748_at) / RFU TMPRSS4 (11747572_a_at) / Fold change /veh TMPRSS4 (11747572_a_at) / RFU HAMP (11756126_x_at) / Fold change /veh HAMP (11756126_x_at) / RFU RNFT2 (11725882_a_at) / Fold change /veh RNFT2 (11725882_a_at) / RFU NR4A2 (11747474_a_at) / Fold change /veh NR4A2 (11747474_a_at) / RFU ABCC12 (11746883_a_at) / Fold change /veh ABCC12 (11746883_a_at) / RFU TMEM136 (11760407_x_at) / Fold change /veh TMEM136 (11760407_x_at) / RFU CLDN22 /// WWC2 (11732394_at) / Fold change /veh CLDN22 /// WWC2 (11732394_at) / RFU HLA-DPB1 (11760878_x_at) / Fold change /veh HLA-DPB1 (11760878_x_at) / RFU SPINT1 (11716480_a_at) / Fold change /veh SPINT1 (11716480_a_at) / RFU GAP43 (11754022_s_at) / Fold change /veh GAP43 (11754022_s_at) / RFU A4GNT (11735810_at) / Fold change /veh A4GNT (11735810_at) / RFU PRB3 (11715151_x_at) / Fold change /veh PRB3 (11715151_x_at) / RFU TUBB4B (11761932_at) / Fold change /veh TUBB4B (11761932_at) / RFU CAPN14 (11732068_a_at) / Fold change /veh CAPN14 (11732068_a_at) / RFU TMCC2 (11721928_a_at) / Fold change /veh TMCC2 (11721928_a_at) / RFU IRGQ (11745062_a_at) / Fold change /veh IRGQ (11745062_a_at) / RFU FAM174B (11720279_a_at) / Fold change /veh FAM174B (11720279_a_at) / RFU TMPRSS4 (11748680_a_at) / Fold change /veh TMPRSS4 (11748680_a_at) / RFU FAM212B (11763350_a_at) / Fold change /veh FAM212B (11763350_a_at) / RFU PLEKHG5 (11743358_a_at) / Fold change /veh PLEKHG5 (11743358_a_at) / RFU ZSCAN30 (11745921_a_at) / Fold change /veh ZSCAN30 (11745921_a_at) / RFU CMKLR1 (11741424_a_at) / Fold change /veh CMKLR1 (11741424_a_at) / RFU LOC101060620 /// MAPK8IP1 (11723275_at) / Fold change /veh LOC101060620 /// MAPK8IP1 (11723275_at) / RFU SPTSSB (11747773_x_at) / Fold change /veh SPTSSB (11747773_x_at) / RFU PRSS12 (11739890_at) / Fold change /veh PRSS12 (11739890_at) / RFU BIN1 (11741810_x_at) / Fold change /veh BIN1 (11741810_x_at) / RFU WNT11 (11732464_a_at) / Fold change /veh WNT11 (11732464_a_at) / RFU C10orf10 (11716521_a_at) / Fold change /veh C10orf10 (11716521_a_at) / RFU C5orf56 (11738089_at) / Fold change /veh C5orf56 (11738089_at) / RFU CYB561 (11721691_x_at) / Fold change /veh CYB561 (11721691_x_at) / RFU ANKRD19P (11752326_a_at) / Fold change /veh ANKRD19P (11752326_a_at) / RFU OR2T12 /// OR2T33 /// OR2T8 (11738714_s_at) / Fold change /veh OR2T12 /// OR2T33 /// OR2T8 (11738714_s_at) / RFU VCAN (11748164_a_at) / Fold change /veh VCAN (11748164_a_at) / RFU JSRP1 (11732532_at) / Fold change /veh JSRP1 (11732532_at) / RFU KRTAP10-11 (11738290_x_at) / Fold change /veh KRTAP10-11 (11738290_x_at) / RFU MYO3A (11730013_a_at) / Fold change /veh MYO3A (11730013_a_at) / RFU EBF3 (11725865_a_at) / Fold change /veh EBF3 (11725865_a_at) / RFU CAMK2N1 (11719241_x_at) / Fold change /veh CAMK2N1 (11719241_x_at) / RFU C5orf56 (11738088_a_at) / Fold change /veh C5orf56 (11738088_a_at) / RFU OLFML3 (11715873_a_at) / Fold change /veh OLFML3 (11715873_a_at) / RFU LOC100653217 /// NTM (11731650_a_at) / Fold change /veh LOC100653217 /// NTM (11731650_a_at) / RFU MAPK11 (11762145_a_at) / Fold change /veh MAPK11 (11762145_a_at) / RFU FIZ1 (11724087_x_at) / Fold change /veh FIZ1 (11724087_x_at) / RFU OASL (11726364_x_at) / Fold change /veh OASL (11726364_x_at) / RFU SOX15 (11748057_x_at) / Fold change /veh SOX15 (11748057_x_at) / RFU CD79A (11719716_a_at) / Fold change /veh CD79A (11719716_a_at) / RFU HIST1H1D (11736915_at) / Fold change /veh HIST1H1D (11736915_at) / RFU CASKIN2 (11723855_a_at) / Fold change /veh CASKIN2 (11723855_a_at) / RFU LOC730098 (11760151_x_at) / Fold change /veh LOC730098 (11760151_x_at) / RFU OR4N2 (11742367_at) / Fold change /veh OR4N2 (11742367_at) / RFU PRRT2 (11749266_a_at) / Fold change /veh PRRT2 (11749266_a_at) / RFU SNX32 (11753110_a_at) / Fold change /veh SNX32 (11753110_a_at) / RFU CDHR5 (11726645_a_at) / Fold change /veh CDHR5 (11726645_a_at) / RFU RCAN1 (11760418_a_at) / Fold change /veh RCAN1 (11760418_a_at) / RFU FAM167A (11723789_a_at) / Fold change /veh FAM167A (11723789_a_at) / RFU FAM26E (11764081_at) / Fold change /veh FAM26E (11764081_at) / RFU ISYNA1 (11749810_s_at) / Fold change /veh ISYNA1 (11749810_s_at) / RFU ACY1 (11761880_at) / Fold change /veh ACY1 (11761880_at) / RFU 11764098_at / Fold change /veh 11764098_at / RFU SAMD14 (11745864_x_at) / Fold change /veh SAMD14 (11745864_x_at) / RFU NPB (11741838_a_at) / Fold change /veh NPB (11741838_a_at) / RFU TMPRSS6 (11731388_a_at) / Fold change /veh TMPRSS6 (11731388_a_at) / RFU KRTAP10-2 (11738614_at) / Fold change /veh KRTAP10-2 (11738614_at) / RFU ARHGAP8 /// PRR5-ARHGAP8 (11727945_x_at) / Fold change /veh ARHGAP8 /// PRR5-ARHGAP8 (11727945_x_at) / RFU KRTAP5-7 /// NADSYN1 (11734609_at) / Fold change /veh KRTAP5-7 /// NADSYN1 (11734609_at) / RFU RASL12 (11751679_a_at) / Fold change /veh RASL12 (11751679_a_at) / RFU CDKN2B (11736163_a_at) / Fold change /veh CDKN2B (11736163_a_at) / RFU PRF1 (11729649_at) / Fold change /veh PRF1 (11729649_at) / RFU, ZNF638 /// ZNF638-IT1 / Fold change vs veh, ZNF638 /// ZNF638-IT1 / RFU, PANK3 / Fold change vs veh, PANK3 / RFU, SH3YL1 / Fold change vs veh, SH3YL1 / RFU, ZEB2 / Fold change vs veh, ZEB2 / RFU, NRIP1 / Fold change vs veh, NRIP1 / RFU, PTTG1IP / Fold change vs veh, PTTG1IP / RFU, CAPN2 / Fold change vs veh, CAPN2 / RFU, MED14 / Fold change vs veh, MED14 / RFU, SNORA58 / Fold change vs veh, SNORA58 / RFU, C1orf63 / Fold change vs veh, C1orf63 / RFU, LRRFIP1 / Fold change vs veh, LRRFIP1 / RFU, NDUFAF7 / Fold change vs veh, NDUFAF7 / RFU, SLC12A2 / Fold change vs veh, SLC12A2 / RFU, IBTK / Fold change vs veh, IBTK / RFU, ESF1 / Fold change vs veh, ESF1 / Fold change vs veh, TMEM50B / RFU, TAOK1 / Fold change vs veh, TAOK1 / RFU, ACBD3 / Fold change vs veh, ACBD3 / RFU, TMA16 / Fold change vs veh, TMA16 / RFU, RWDD3 / Fold change vs veh, RWDD3 / RFU, BCAT1 / Fold change vs veh, BCAT1 / RFU, EDEM3 / Fold change vs veh, EDEM3 / RFU, TMEM33 / Fold change vs veh, TMEM33 / RFU, WDR75 / Fold change vs veh, WDR75 / RFU, AHCTF1 / Fold change vs veh, AHCTF1 / RFU, TFRC / Fold change vs veh, TFRC / RFU, ZDHHC17 / Fold change vs veh, ZDHHC17 / RFU, NOM1 / Fold change vs veh, NOM1 / RFU, ARL8B / Fold change vs veh, ARL8B / RFU, ZBTB11 / Fold change vs veh, ZBTB11 / RFU, TAMM41 / Fold change vs veh, TAMM41 / RFU, KIAA1704 /// LOC100996395 / Fold change vs veh, KIAA1704 /// LOC100996395 / RFU, ING1 / Fold change vs veh, ING1 / RFU, TRMT61B / Fold change vs veh, TRMT61B / RFU, FUBP3 / Fold change vs veh, FUBP3 / RFU, TP53 / Fold change vs veh, TP53 / RFU, TNKS2 / Fold change vs veh, TNKS2 / RFU, ZFP14 / Fold change vs veh, ZFP14 / RFU, ACTR2 / Fold change vs veh, ACTR2 / RFU, PPP3R1 / Fold change vs veh, PPP3R1 / RFU, PIK3R1 / Fold change vs veh, PIK3R1 / RFU, HNRNPA1 / Fold change vs veh, HNRNPA1 / RFU, RNF170 / Fold change vs veh, RNF170 / RFU, ZNF28 / Fold change vs veh, ZNF28 / RFU, RNGTT / Fold change vs veh, RNGTT / RFU, OGT / Fold change vs veh, OGT / RFU, BRD1 / Fold change vs veh, BRD1 / RFU, MARS / Fold change vs veh, MARS / RFU, ZNF655 / Fold change vs veh, ZNF655 / RFU, FAHD1 / Fold change vs veh, FAHD1 / RFU, BDP1 / Fold change vs veh, BDP1 / RFU, LRRCC1 / Fold change vs veh, LRRCC1 / RFU, ARID1A / Fold change vs veh, ARID1A / RFU, ZNF146 / Fold change vs veh, ZNF146 / RFU, ZNF330 / Fold change vs veh, ZNF330 / RFU, GPN3 / Fold change vs veh, GPN3 / RFU, C9orf123 / Fold change vs veh, C9orf123 / RFU, N4BP2L2 / Fold change vs veh, N4BP2L2 / RFU, ARFIP1 / Fold change vs veh, ARFIP1 / RFU, FAM179B / Fold change vs veh, FAM179B / RFU, BCL10 / Fold change vs veh, BCL10 / RFU, UHRF1BP1L / Fold change vs veh, UHRF1BP1L / RFU, BET1 / Fold change vs veh, BET1 / RFU, CNOT2 / Fold change vs veh, CNOT2 / RFU, ZNF268 / Fold change vs veh, ZNF268 / Fold change vs veh, ZNF507 / RFU, DGCR2 / Fold change vs veh, DGCR2 / RFU, WDSUB1 / Fold change vs veh, WDSUB1 / Fold change vs veh, HSP90B1 /// MIR3652 / RFU, ADSS / Fold change vs veh, ADSS / RFU, GK / Fold change vs veh, GK / RFU, ZNF148 / Fold change vs veh, ZNF148 / RFU, TAF9 / Fold change vs veh, TAF9 / RFU, SLC1A5 / Fold change vs veh, SLC1A5 / RFU, SLMO2 / Fold change vs veh, SLMO2 / RFU, ABCC4 / Fold change vs veh, ABCC4 / RFU, LOC101060439 /// RAP1B / Fold change vs veh, LOC101060439 /// RAP1B / RFU, RFX7 / Fold change vs veh, RFX7 / RFU, GTPBP10 / Fold change vs veh, GTPBP10 / RFU, CNEP1R1 / Fold change vs veh, CNEP1R1 / RFU, BIVM-ERCC5 /// ERCC5 / Fold change vs veh, BIVM-ERCC5 /// ERCC5 / RFU, ILF3 / Fold change vs veh, ILF3 / RFU 11762660_at / Fold change /veh 11762660_at / RFU VCAN (11757783_s_at) / Fold change /veh VCAN (11757783_s_at) / RFU DDX43 (11728927_at) / Fold change /veh DDX43 (11728927_at) / RFU KRT8 (11758188_x_at) / Fold change /veh KRT8 (11758188_x_at) / RFU NKD1 (11759106_at) / Fold change /veh NKD1 (11759106_at) / RFU SRD5A1 (11742802_a_at) / Fold change /veh SRD5A1 (11742802_a_at) / RFU TPSAB1 /// TPSB2 (11721975_s_at) / Fold change /veh TPSAB1 /// TPSB2 (11721975_s_at) / RFU GSTM3 (11746129_a_at) / Fold change /veh GSTM3 (11746129_a_at) / RFU IL23R (11737362_x_at) / Fold change /veh IL23R (11737362_x_at) / RFU TMEM51 (11727254_a_at) / Fold change /veh TMEM51 (11727254_a_at) / RFU PIWIL2 (11732686_x_at) / Fold change /veh PIWIL2 (11732686_x_at) / RFU ORM1 (11744905_x_at) / Fold change /veh ORM1 (11744905_x_at) / RFU CCDC152 (11743942_at) / Fold change /veh CCDC152 (11743942_at) / RFU ECM1 (11717891_a_at) / Fold change /veh ECM1 (11717891_a_at) / RFU IL23R (11748794_a_at) / Fold change /veh IL23R (11748794_a_at) / RFU TNFAIP8L3 (11732012_x_at) / Fold change /veh TNFAIP8L3 (11732012_x_at) / RFU MBOAT4 (11741988_at) / Fold change /veh MBOAT4 (11741988_at) / RFU 11764193_at / Fold change /veh 11764193_at / RFU TMEM53 (11763286_at) / Fold change /veh TMEM53 (11763286_at) / RFU MAGEB2 (11727129_at) / Fold change /veh MAGEB2 (11727129_at) / RFU TMEM200A (11744735_a_at) / Fold change /veh TMEM200A (11744735_a_at) / RFU CCDC152 (11751479_a_at) / Fold change /veh CCDC152 (11751479_a_at) / RFU FAM211A (11726209_a_at) / Fold change /veh FAM211A (11726209_a_at) / RFU RGS16 (11746705_a_at) / Fold change /veh RGS16 (11746705_a_at) / RFU VCAN (11755009_s_at) / Fold change /veh VCAN (11755009_s_at) / RFU RHOB (11743442_s_at) / Fold change /veh RHOB (11743442_s_at) / RFU RGS16 (11720943_a_at) / Fold change /veh RGS16 (11720943_a_at) / RFU RGS16 (11720944_at) / Fold change /veh RGS16 (11720944_at) / RFU, VPS4B / Fold change vs veh, VPS4B / RFU, CREB1 / Fold change vs veh, CREB1 / RFU, DNAJC13 / Fold change vs veh, DNAJC13 / RFU, GNAQ / Fold change vs veh, GNAQ / RFU, CDK5R1 / Fold change vs veh, CDK5R1 / RFU, ZRANB3 / Fold change vs veh, ZRANB3 / RFU, CUL4A / Fold change vs veh, CUL4A / RFU, CCNY / Fold change vs veh, CCNY / RFU, UFL1 / Fold change vs veh, UFL1 / RFU, COG3 / Fold change vs veh, COG3 / RFU, DIAPH2 / Fold change vs veh, DIAPH2 / RFU, SKA2 / Fold change vs veh, SKA2 / RFU, AFF3 / Fold change vs veh, AFF3 / RFU, LMF1 / Fold change vs veh, LMF1 / RFU, IPO11 / Fold change vs veh, IPO11 / RFU, DFFB / Fold change vs veh, DFFB / RFU, FOXP1 / Fold change vs veh, FOXP1 / RFU, CARD8 / Fold change vs veh, CARD8 / RFU, STRN3 / Fold change vs veh, STRN3 / RFU, ADK / Fold change vs veh, ADK / RFU, RASSF2 / Fold change vs veh, RASSF2 / RFU, WIPF1 / Fold change vs veh, WIPF1 / RFU, LARP1B / Fold change vs veh, LARP1B / RFU, RASA1 / Fold change vs veh, RASA1 / RFU, RB1 / Fold change vs veh, RB1 / RFU, PPFIA1 / Fold change vs veh, PPFIA1 / RFU, MAT2A / Fold change vs veh, MAT2A / RFU, CCT5 / Fold change vs veh, CCT5 / RFU, WDR92 / Fold change vs veh, WDR92 / RFU, CUX1 / Fold change vs veh, CUX1 / RFU, TTC7A / Fold change vs veh, TTC7A / RFU, TMEM135 / Fold change vs veh, TMEM135 / RFU, DEPTOR / Fold change vs veh, DEPTOR / RFU, CPM / Fold change vs veh, CPM / RFU, DNAJB6 / Fold change vs veh, DNAJB6 / RFU, CACNA2D3 / Fold change vs veh, CACNA2D3 / RFU, DTX4 / Fold change vs veh, DTX4 / RFU, TFCP2 / Fold change vs veh, TFCP2 / RFU, GMCL1 /// GMCL1P1 / Fold change vs veh, GMCL1 /// GMCL1P1 / RFU, AEBP2 / Fold change vs veh, AEBP2 / RFU, SNHG1 /// SNORD22 /// SNORD25 /// SNORD26 /// SNORD27 /// SNORD28 /// SNORD29 /// SNORD31 / Fold change vs veh, SNHG1 /// SNORD22 /// SNORD25 /// SNORD26 /// SNORD27 /// SNORD28 /// SNORD29 /// SNORD31 / Fold change (Aza/veh), C12orf56 (ProbeSet 11735607_a_at) / Fold change (ACY-1035/veh), C12orf56 (ProbeSet 11735607_a_at) / Fold change (Aza/veh), FGFR1OP (ProbeSet 11751329_s_at) / Fold change (ACY-1035/veh), FGFR1OP (ProbeSet 11751329_s_at) / Fold change (Aza/veh), VPS36 (ProbeSet 11739960_a_at) / Fold change (ACY-1035/veh), VPS36 (ProbeSet 11739960_a_at) / RFU SYPL1 (11715823_x_at) / Fold change /veh SYPL1 (11715823_x_at) / RFU IGFBP7 (11715501_s_at) / Fold change /veh IGFBP7 (11715501_s_at) / RFU REEP3 (11722064_at) / Fold change /veh REEP3 (11722064_at) / RFU IGLL1 (11728026_x_at) / Fold change /veh IGLL1 (11728026_x_at): dose or concentration left out as unconfirmed
Conditions: MV-4-11 cells, 48 hours

## Nc1ccc(-c2cccs2)cc1NC(=O)c1ccc2c(c1)cc(C1CC1)n2CCN1CCOCC1 [ACY-1035]
  Fold change /veh IGLL1 (11728026_x_at): 0.28
